Experimental findings from article PMC5557808 (Nature Communications, 2017) are described below.

In this experiment the target is T1, MMP-8 (Homo sapiens, UniProt P22894).
T1 construct: purchased EMD Millipore Corporation (Billerica, MA)
Put plainly: MMP-8 cleavage of soluble PCL conjugates (HPLC decrease of main peak). Type of experiment: biochemical. Conditions: 900 ng/mL MMP-8, 60 min; p < 0.001, t-test. How it is done: Pro-MMPs (e.g., MMP-8, MMP-1, or MMP-9; used at 0.1 mg/mL and >100.0 mU/mg based on the manufacturer’s information) were activated with p-aminophenylmercuric acetate (APMA) (8). For that, a 10 mM stock solution of APMA was freshly prepared in 0.1 M NaOH and a 10:1 (v/v) ratio of the respective proenzyme and the APMA solution (MMP:APMA) was incubated for 3 h at 37 °C. The activity was confirmed using the MMP-8 detection kit (QuickZyme Biosciences, Leiden, the Netherlands). A stock solution (90 µg/mL) of the activated MMP was prepared (used for cleavage studies on the PCL or the fully assembled microparticle-PCL-tastant setup (sensor), in MMP-8 buffer (200 mM NaCl, 50 mM Tris-HCl, 5 mM CaCl2, 1 µM ZnCl2, 0.05% Brij 35 at pH 6.8–7.0). All MMP experiments are described in detail in the Supplementary Methods. […]
in water ( v/v)) and eluent B (0.1 % TFA in 2:3 water-acetonitrile (v/v)) and a gradient from 33 to 80% elu ent B within 30 minutes. UV absorption was r ead at λ = 280 nm or 220 nm. After freezing the samples at -80 °C, fr eeze- drying was performed on a Christ Alpha 1 -4 de vi ce (Martin Christ Gefriertrocknungs anlagen, Osterode am Harz, G e r ma n y) at a desublimers ’ te mperature of - 60 ° C, pressure of 1.030 mbar and processing temperature of 19 °C.
Pro-MMPs (e. g. MMP -8, MMP -1 or MMP-9; adapted to 0.1 mg/mL and > 100.0 mU/mg based on manufacturer information and when appropriate) were activated with APMA 8. For that, a 10 mM stock solution of APMA in 0.1 M NaOH was freshly prepared and a 10:1 (v/v) ratio of the r especti ve proenzyme and APMA solution (MMP:APMA) was incubated for 3 h at 37 °C. The activity was conf ir med using the MMP-8 detection kit (Q uic kZ ym e® Biosciences, Leiden, Netherlands). A stock solution (90 µg/mL) of the activated MMP was prepared (used for cleavage studies on the pr ot eas e-cleavable linker (PCL; e.g. Figure 2) or the fully assemb led microparticle -PCL- t ast ant setup (sensor; e.g. Figure 3) , in MMP -8 buffer (200 mM NaCl, 50 mM Tris-H Cl, 5 mM C aC l2, 1 µM ZnCl2, 0.05 % Brij35 at pH 6.8- 7.0). A ll MMP -8 exp eriments wer e performed as follo ws. 25 µg of the sensor ( see chap ter : Peptide-coupling to beads (Sensor)) in 100 µL MMP-buffer or 1 mg of FP LC -purified and lyophilized PCL as described dissolved 2 mL M MP -buffer resulting in a final concentration of 0.5 mg/ mL substrate was used. […]
Figure 2A , 3, 4B ). […]
(sensor) in co mpar ison to negative controls (the negative controls for the PCL an d sensor exper i men ts were b y incubation without MMP under otherwise identical conditions). The relative d ecreas e of the PCL’s ma in peak was char act er ized by HPLC (PCL) or of the sensor’s fluorescence b y FACS (sensor) in comparison to control. […]

Each structure is given as a SMILES string. Where a SMILES comes first, the peptide text is derived from it. [ ]: non-standard residue; d: D form. The star is where a group is joined. X1 = CC[N+](CC)(CC(=O)Nc1c(C)cccc1C)Cc1cccc(C(=O)*)c1; Aha = [N-]=[N+]=NCC[C@H](N)C(=O)O

T1 sequence (P22894 101-467): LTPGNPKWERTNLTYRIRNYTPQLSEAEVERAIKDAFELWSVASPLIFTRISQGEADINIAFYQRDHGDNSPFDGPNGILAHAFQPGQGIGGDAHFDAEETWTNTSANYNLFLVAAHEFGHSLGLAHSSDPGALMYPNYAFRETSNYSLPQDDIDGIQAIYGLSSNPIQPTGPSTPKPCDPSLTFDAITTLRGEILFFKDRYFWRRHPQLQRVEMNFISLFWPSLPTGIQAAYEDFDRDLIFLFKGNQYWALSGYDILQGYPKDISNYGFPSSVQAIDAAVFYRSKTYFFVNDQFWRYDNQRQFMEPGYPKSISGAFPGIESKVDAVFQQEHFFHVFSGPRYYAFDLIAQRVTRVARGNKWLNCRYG

On to `CC[C@H](C)[C@H](NC(=O)CNC(=O)[C@H](CCC(N)=O)NC(=O)[C@@H]1CCCN1C(=O)CNC(=O)c1cccc(C[N+](CC)(CC)CC(=O)Nc2c(C)cccc2C)c1)C(=O)N[C@@H](C)C(=O)NCC(=O)N[C@@H](CCC(N)=O)C(=O)N[C@@H](CCN=[N+]=[N-])C(=O)N[C@@H](CCC(N)=O)C(=O)O` [ID #1c] (X1-GPQGIAGQ[Aha]Q-OH), for which the “Cleavage by MMP-8 compared with the PCL carboxyfluorescein conjugate (ID #1b)” value is given as “significantly better”.
